The text below walks through data of PMC7615343, “Fluorination Influences the Bioisostery of Myo-Inositol Pyrophosphate Analogs” (Chemistry (Weinheim an der Bergstrasse, Germany), 2023).

A word on the IC50: it is the concentration needed to halve the response being measured.

This test addresses T1, PPIP5K2^1-366 (human PPIP5K2 kinase domain) (Homo sapiens, UniProt O43314).
T1 construct: one comprised residues 1–366; made in house
T1 sequence (O43314 1-366): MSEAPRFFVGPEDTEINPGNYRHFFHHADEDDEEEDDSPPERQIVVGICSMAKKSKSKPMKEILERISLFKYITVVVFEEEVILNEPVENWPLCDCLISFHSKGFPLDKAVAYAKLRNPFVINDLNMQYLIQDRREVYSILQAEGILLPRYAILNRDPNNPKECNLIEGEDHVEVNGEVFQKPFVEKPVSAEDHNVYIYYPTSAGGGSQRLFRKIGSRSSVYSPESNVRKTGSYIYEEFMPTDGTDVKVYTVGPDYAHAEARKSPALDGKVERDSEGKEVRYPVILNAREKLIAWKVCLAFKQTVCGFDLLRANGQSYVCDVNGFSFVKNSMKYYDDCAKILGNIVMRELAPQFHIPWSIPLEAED
Nature of the test: PPIP5K2KD reverse kinase assay (ATP formation from ADP and 1,5(PP)2-IP4). The format is biochemical. Conditions: 25 °C, 30 min, 0.1 mM ADP, 100 nM [1,5]PP-IP4, ATP production measured; this work; read-out: IC50, inhibition of the reverse kinase activity of PPIP5K2^1-366. How it is done: An alternative method to study the interaction of PP-IP5 analogs with PPIP5K2^KD is to derive IC50 values for inhibition of a “reverse-kinase” assay that records ATP formation when the enzyme is incubated with ADP and 1,5(PP)2-IP4.[29, 31] This approach avoids the need to use radiolabeled material and HPLC analysis. Moreover, the assay of ATP production is inherently more sensitive compared to measuring ATP consumption. […] In addition to the catalytic pocket, the PPIP5K2 kinase reaction cycle also utilizes a surface-mounted substrate capture site; the latter was initially identified through its binding of 5PA-IP5.[31] […] In this case, the higher affinity of the capture site for less polar molecules may explain why 5PA-IP5 is the only analog so far detected in this site.
For the reverse kinase assay, PPIP5K2^1-366 (2.5 μg mL^-1) was incubated at 25 °C for 30 min with 20 μL buffer containing 20 mM Tris-HCl, pH 7.5, 10 mM MgCl2, 0.1 mM ADP, 100 nM [1,5]PP-IP4 and various concentrations of either 5PCP-IP5 or 5PCF2P-IP5. The generated ATP was measured using a Molecular Probes ATP Determination kit (Thermo Fisher Scientific catalog number A22066). The IC50 value was calculated using GraphPad Prism. […]
Diffraction data were collected using APS beamlines 22 -ID. […] The structure was determined using rigid body and direct Fourier synthesis, and refined with t he equivalent and expanded test sets. […]

For `O=P(O)(O)O[C@H]1[C@@H](OP(=O)(O)O)[C@H](OP(=O)(O)O)[C@@H](OP(=O)(O)C(F)(F)P(=O)(O)O)[C@H](OP(=O)(O)O)[C@H]1OP(=O)(O)O` [5PCF2P-IP5], the IC50 amounted to 583 nM.
With `O=P(O)(O)CP(=O)(O)O[C@H]1[C@H](OP(=O)(O)O)[C@@H](OP(=O)(O)O)[C@@H](OP(=O)(O)O)[C@@H](OP(=O)(O)O)[C@@H]1OP(=O)(O)O` [5PCP-IP5], the IC50 worked out at 223 nM.
